Key:
Test in all cases: post-emergence field trial under rows of vines, 150-200 L water/ha (Examples 6-9)
Assay type in all cases: in vivo
[1] = system: Senecio vulgaris; conditions: flazasulfuron 40 g/ha
Description: (§1) The expected activity of a given combination of two or three herbicides can be calculated as follows according to a calculation method by Colby (cf. COLBY, S. R.: “Calculating synergistic and antagonistic responses of herbicide combinations”, • Weeds 15, pages 20-22, 1967): • If X=% damage by herbicide (A) at an application rate of m g/ha, • Y=% damage by herbicide (B) at an application rate of n g/ha, • E=the expected damage by herbicides (A) and (B) at application rates of m and n […] and, • then for a combination:
(§2) Individual compositions comprising pelargonic acid or flazasulfuron are compared with a herbicide composition according to the invention comprising pelargonic acid and flazasulfuron.
(§3) Herbicidal activity was determined by performing a post-emergence test. […] The corresponding mixture was in the form of a spray solution. Besides, spray solutions of individual compositions comprising pelargonic acid or flazasulfuron were used.
(§4) The spray solution was applied on plants of unwanted vegetation present on fields where perennial crops were grown.
(§5) After 5 to 88 days after application of the spray solution, the degree of damage to the unwanted vegetation is rated in % of plants of unwanted vegetation that were killed. Tests were performed on test fields (field trials).

[2] = system: Chenopodium album; conditions: flazasulfuron 40 g/ha
Description: as §1, §2, §3, §4, §5

[3] = system: Amaranthus retroflexus; conditions: flazasulfuron 40 g/ha
Description: as §1, §2, §3, §4, §5

[4] = system: Digitaria sanguinalis and Setaria pumila; conditions: flazasulfuron 40 g/ha
Description: as §1, §2, §3, §4, §5

[5] = system: Digitaria sanguinalis; conditions: flazasulfuron 40 g/ha
Description: as §1, §2, §3, §4, §5

[6] = system: Epilobium tetragonum; conditions: flazasulfuron 40 g/ha
Description: as §1, §2, §3, §4, §5

[7] = system: Bromus oxyodon; conditions: flazasulfuron 40 g/ha
Description: as §1, §2, §3, §4, §5

[8] = system: Veronica persicae; conditions: flazasulfuron 40 g/ha
Description: as §1, §2, §3, §4, §5

[9] = system: Geranium molle; conditions: 15 d, flazasulfuron 40 g/ha
Description: as §1, §2, §3, §4, §5

[10] = system: Stellaria media; conditions: flazasulfuron 40 g/ha
Description: as §1, §2, §3, §4, §5

[11] = 14 d, pelargonic acid 5440 g/ha
[12] = 14 d, pelargonic acid 6800 g/ha
[13] = 14 d, pelargonic acid 8160 g/ha
[14] = 31 d, pelargonic acid 5440 g/ha
[15] = 31 d, pelargonic acid 6800 g/ha
[16] = 31 d, pelargonic acid 8160 g/ha
[17] = 31 d, pelargonic acid 10880 g/ha
[18] = 58 d, pelargonic acid 5440 g/ha
[19] = 58 d, pelargonic acid 8160 g/ha
[20] = 58 d, pelargonic acid 10880 g/ha
[21] = 7 d, pelargonic acid 10880 g/ha
[22] = 14 d, pelargonic acid 10880 g/ha
[23] = 58 d, pelargonic acid 6800 g/ha
[24] = 28 d, pelargonic acid 5440 g/ha
[25] = 28 d, pelargonic acid 6800 g/ha
[26] = 28 d, pelargonic acid 8160 g/ha
[27] = 28 d, pelargonic acid 10880 g/ha
[28] = 27 d, pelargonic acid 5440 g/ha
[29] = 27 d, pelargonic acid 6800 g/ha
[30] = 27 d, pelargonic acid 8160 g/ha
[31] = 27 d, pelargonic acid 10880 g/ha
[32] = 56 d, pelargonic acid 5440 g/ha
[33] = 56 d, pelargonic acid 6800 g/ha
[34] = 56 d, pelargonic acid 8160 g/ha
[35] = 56 d, pelargonic acid 10880 g/ha

`CCCCCCCCC(=O)O` [Pelargonic acid, nonanoic acid] showed a herbicidal effect ([1]; 7 d, pelargonic acid 5440 g/ha) of 83%, a herbicidal effect ([1]; 7 d, pelargonic acid 6800 g/ha) of 89% and a herbicidal effect [1, 11] of 80%. The herbicidal effect [1, 12] was 89%, the herbicidal effect [1, 13] was 98% and the herbicidal effect [1, 14] was 60%. For the same compound, the herbicidal effect [1, 15] was 60%, the herbicidal effect [1, 16] was 91% and the herbicidal effect [1, 17] was 90%. The herbicidal effect [1, 18] was 0%, the herbicidal effect [1, 19] was 10% and the herbicidal effect [1, 20] was 15%. It also gave a herbicidal effect ([2]; 7 d, pelargonic acid 5440 g/ha) of 60%, a herbicidal effect [2, 21] of 91% and a herbicidal effect [2, 11] of 60%. The herbicidal effect [2, 22] was 91%, the herbicidal effect [2, 14] was 45% and the herbicidal effect [2, 16] was 74%. It also gave a herbicidal effect [2, 17] of 78%, a herbicidal effect [2, 18] of 23% and a herbicidal effect [2, 23] of 35%. It also gave a herbicidal effect [2, 19] of 65%, a herbicidal effect [2, 20] of 65% and a herbicidal effect ([3]; 7 d, pelargonic acid 5440 g/ha) of 53%. The herbicidal effect [3, 21] was 86%, the herbicidal effect [3, 11] was 53% and the herbicidal effect [3, 22] was 86%. The herbicidal effect [3, 14] was 48%, the herbicidal effect [3, 15] was 50% and the herbicidal effect [3, 16] was 70%. It also gave a herbicidal effect [3, 17] of 75%, a herbicidal effect [3, 18] of 18% and a herbicidal effect [3, 23] of 30%. It also gave a herbicidal effect [3, 19] of 48%, a herbicidal effect [3, 20] of 63% and a herbicidal effect ([4]; 7 d, pelargonic acid 5440 g/ha) of 97%. It also gave a herbicidal effect ([4]; 7 d, pelargonic acid 6800 g/ha) of 19%, a herbicidal effect ([4]; 7 d, pelargonic acid 8160 g/ha) of 68% and a herbicidal effect [4, 21] of 70%. For the same compound, the herbicidal effect [4, 11] was 25%, the herbicidal effect [4, 13] was 19% and the herbicidal effect [4, 22] was 38%. The herbicidal effect [4, 24] was 0%, the herbicidal effect [4, 25] was 0% and the herbicidal effect [4, 26] was 0%. For the same compound, the herbicidal effect [4, 27] was 31%, the herbicidal effect ([4]; 65 d, pelargonic acid 5440 g/ha) was 0% and the herbicidal effect ([4]; 65 d, pelargonic acid 8160 g/ha) was 0%. For the same compound, the herbicidal effect ([4]; 65 d, pelargonic acid 10880 g/ha) was 0%, the herbicidal effect ([5]; 7 d, pelargonic acid 5440 g/ha) was 35% and the herbicidal effect ([5]; 7 d, pelargonic acid 6800 g/ha) was 63%. It also gave a herbicidal effect ([5]; 7 d, pelargonic acid 8160 g/ha) of 48%, a herbicidal effect [5, 21] of 54% and a herbicidal effect [5, 11] of 10%. For the same compound, the herbicidal effect [5, 12] was 58%, the herbicidal effect [5, 13] was 43% and the herbicidal effect [5, 22] was 49%. It also gave a herbicidal effect [5, 28] of 10%, a herbicidal effect [5, 29] of 20% and a herbicidal effect [5, 30] of 26%. The herbicidal effect [5, 31] was 5%, the herbicidal effect [5, 32] was 0% and the herbicidal effect [5, 33] was 8%. The herbicidal effect [5, 34] was 0%, the herbicidal effect [5, 35] was 0% and the herbicidal effect ([6]; 7 d, pelargonic acid 5440 g/ha) was 49%. For the same compound, the herbicidal effect ([6]; 7 d, pelargonic acid 8160 g/ha) was 56%, the herbicidal effect [6, 21] was 73% and the herbicidal effect [6, 12] was 0%. It also gave a herbicidal effect [6, 13] of 8%, a herbicidal effect [6, 22] of 13% and a herbicidal effect [6, 29] of 0%. For the same compound, the herbicidal effect [6, 30] was 0%, the herbicidal effect [6, 31] was 0% and the herbicidal effect [6, 33] was 0%. It also gave a herbicidal effect [6, 34] of 0%, a herbicidal effect [6, 35] of 0% and a herbicidal effect ([7]; 7 d, pelargonic acid 5440 g/ha) of 10%. The herbicidal effect ([7]; 7 d, pelargonic acid 6800 g/ha) was 11%, the herbicidal effect ([7]; 7 d, pelargonic acid 8160 g/ha) was 15% and the herbicidal effect [7, 21] was 18%. It also gave a herbicidal effect [7, 11] of 11%, a herbicidal effect [7, 12] of 16% and a herbicidal effect [7, 13] of 20%. The herbicidal effect [7, 22] was 23%, the herbicidal effect [7, 24] was 8% and the herbicidal effect [7, 25] was 11%. It also gave a herbicidal effect [7, 26] of 16%, a herbicidal effect [7, 27] of 18% and a herbicidal effect ([8]; 7 d, pelargonic acid 5440 g/ha) of 43%. It also gave a herbicidal effect ([8]; 7 d, pelargonic acid 6800 g/ha) of 55%, a herbicidal effect ([8]; 7 d, pelargonic acid 8160 g/ha) of 50% and a herbicidal effect [8, 21] of 45%. For the same compound, the herbicidal effect [8, 11] was 10%, the herbicidal effect [8, 12] was 45% and the herbicidal effect [8, 13] was 30%. The herbicidal effect [8, 22] was 30%, the herbicidal effect [8, 28] was 0% and the herbicidal effect [8, 29] was 20%. For the same compound, the herbicidal effect [8, 30] was 0%, the herbicidal effect [8, 31] was 0% and the herbicidal effect [8, 32] was 0%. The herbicidal effect [8, 35] was 0%, the herbicidal effect ([9]; pelargonic acid 5440 g/ha) was 0% and the herbicidal effect ([9]; pelargonic acid 6800 g/ha) was 3%. The herbicidal effect ([9]; pelargonic acid 8160 g/ha) was 0%, the herbicidal effect ([9]; pelargonic acid 10880 g/ha) was 0% and the herbicidal effect ([10]; 7 d, pelargonic acid 8160 g/ha) was 49%. For the same compound, the herbicidal effect [10, 21] was 54%, the herbicidal effect [10, 11] was 69% and the herbicidal effect [10, 12] was 75%. It also gave a herbicidal effect [10, 13] of 66%, a herbicidal effect [10, 22] of 80% and a herbicidal effect [10, 24] of 80%. For the same compound, the herbicidal effect [10, 25] was 84%, the herbicidal effect [10, 26] was 86% and the herbicidal effect [10, 27] was 93%.
